Test results from ChEMBL document CHEMBL1159099, “Structure and in vitro antitumor activity evaluation of brominated diterpenes from the red alga Sphaerococcus coronopifolius” (Bioorg Med Chem, 2010).
Blank lines part the entries; values can stand above or below the compound they belong to. The source made the active and inactive calls. The calls are words filed in the database; no cut-off is given here.

Experiments:
SK-MEL-28 = assay: Growth inhibition of human apoptosis-resistant SK-MEL-28 cells after 72 hrs by MTT assay; assay type: functional, cell-based; settings: SK-MEL-28, 72 h
LoVo = assay: Growth inhibition of human apoptosis-sensitive LoVo cells after 72 hrs by MTT assay; assay type: functional, cell-based
[1] = Growth inhibition of human apoptosis-resistant OE21 cells after 72 hrs by MTT assay; assay type: functional, cell-based; settings: OE21, 72 h
[2] = Growth inhibition of human apoptosis-resistant U373 cells after 72 hrs by MTT assay; assay type: functional, cell-based, U-373MG ATCC; settings: U373 MG
PC-3 = assay: Growth inhibition of human apoptosis-sensitive PC3 cells after 72 hrs by MTT assay; assay type: functional, cell-based; settings: PC-3, 72 h
A549 = assay: Growth inhibition of human apoptosis-resistant A549 cells after 72 hrs by MTT assay; assay type: functional, cell-based; settings: A549, 72 h
U-373MG ATCC [3] = assay: Cytostatic effect against human apoptosis-resistant U373 cells assessed as increase in mitosis duration at 16 uM after 72 hrs by computer-assisted phase contrast microscopy; assay type: functional, cell-based
U-373MG ATCC [4] = assay: Cytostatic effect against human apoptosis-resistant U373 cells assessed as inhibition of cell entry into mitosis at 3 uM after 72 hrs by computer-assisted phase contrast microscopy; assay type: functional, cell-based
U-373MG ATCC [5] = assay: Cytostatic effect against human apoptosis-resistant U373 cells at 7 uM assessed as induction of vacuolization after 72 hrs by computer-assisted phase contrast microscopy; assay type: functional, cell-based

SMILES: CC(=O)[C@H]1[C@@H]2[C@H]3CC[C@@H](C(C)C)[C@]3(C)CC[C@]2(C)[C@@H](Br)C[C@@H]1O [CORONONE]
IC50 (SK-MEL-28): 38 µM
IC50 (LoVo): 28 µM
IC50 [1]: 30 µM
IC50 [2]: 31 µM
IC50 (PC-3): 30 µM
IC50 (A549): 42 µM

SMILES: CC(C)[C@]1(O)C[C@H]2C[C@H]3[C@H]4[C@](C)(CC[C@@]31C2)[C@@H](Br)CC[C@@]4(C)O
IC50 (SK-MEL-28): > 100 µM
IC50 (LoVo): 56 µM
IC50 [1]: 64 µM
IC50 [2]: 75 µM
IC50 (PC-3): 43 µM
IC50 (A549): 63 µM

SMILES: CC(C)[C@@H]1C[C@@H]2C[C@@]13CC[C@]1(C)[C@@H](Br)CC[C@@](C)(O)[C@H]1[C@@H]3[C@H]2O [BROMOTETRASPHAEROL]
IC50 (SK-MEL-28): 43 µM
IC50 (LoVo): 26 µM
IC50 [1]: 33 µM
IC50 [2]: 34 µM
IC50 (PC-3): 30 µM
IC50 (A549): 38 µM

SMILES: C=C1CC[C@@H]2[C@H]([C@@H]3[C@H](C)CC[C@H]13)C2(C)C
IC50 (SK-MEL-28): > 100 µM
IC50 (LoVo): 63 µM
IC50 [1]: 83 µM
IC50 [2]: 71 µM
IC50 (PC-3): 35 µM
IC50 (A549): 79 µM

SMILES: CC(C)[C@@H]1CC[C@@H]2[C@@H](O)[C@H]3[C@](C)(CC[C@]21C)[C@@H](Br)CC[C@@]3(C)O [NEODOLASTANE]
IC50 (SK-MEL-28): 96 µM
IC50 (LoVo): 64 µM
IC50 [1]: 60 µM
IC50 [2]: 85 µM
IC50 (PC-3): 74 µM
IC50 (A549): 97 µM

SMILES: C=C1CC[C@H]2[C@@H](C(C)C)CC[C@@H]2/C=C/[C@](C)(O)CC[C@H]1OC(C)=O [SPHAEROLLANE I]
IC50 (SK-MEL-28): 57 µM
IC50 (LoVo): 23 µM
IC50 [1]: 34 µM
IC50 [2]: 20 µM
IC50 (PC-3): 34 µM
IC50 (A549): 44 µM

SMILES: CC(C)[C@@H]1C=C[C@H](OO)[C@H]2[C@@H]3[C@](C)(O)[C@@H](O)C[C@H](Br)[C@@]3(C)CC[C@@]21CBr
IC50 (SK-MEL-28): 28 µM
IC50 (LoVo): 28 µM
IC50 [1]: 27 µM
IC50 [2]: 22 µM
IC50 (PC-3): 28 µM
IC50 (A549): 26 µM

SMILES: CC(C)[C@@H]1C=C[C@H](OO)[C@H]2[C@@H]3[C@](C)(O)[C@H](O)C[C@H](Br)[C@@]3(C)CC[C@@]21CBr
IC50 (SK-MEL-28): 31 µM
IC50 (LoVo): 22 µM
IC50 [1]: 25 µM
IC50 [2]: 32 µM
IC50 (PC-3): 30 µM
IC50 (A549): 40 µM

SMILES: CC(C)[C@@H]1C=C[C@H](O)[C@H]2[C@H]3[C@](C)(CC[C@@]21CBr)[C@@H](Br)CC[C@@]3(C)O [BROMOSPHAERODIOL]
IC50 (SK-MEL-28): 31 µM
IC50 (LoVo): 20 µM
IC50 [1]: 15 µM
IC50 [2]: 22 µM
IC50 (PC-3): 26 µM
IC50 (A549): 24 µM

SMILES: C=C1CC[C@@]2(C)[C@H](/C=C/CC[C@H]1C(C)C)[C@](C)(O)[C@H](O)C[C@@H]2Br
IC50 (SK-MEL-28): 62 µM
IC50 (LoVo): 24 µM
IC50 [1]: 33 µM
IC50 [2]: 60 µM
IC50 (PC-3): 48 µM
IC50 (A549): 64 µM

SMILES: CC(C)[C@@H]1CC=C[C@H]2[C@H]3[C@](C)(CC[C@]12CBr)[C@@H](Br)CC[C@@]3(C)O [BROMOSPHAEROL]
IC50 (SK-MEL-28): 34 µM
IC50 (LoVo): 23 µM
IC50 [1]: 28 µM
IC50 [2]: 30 µM
IC50 (PC-3): 30 µM
IC50 (A549): 35 µM

Second part, led by results:

IC50 (SK-MEL-28): 22 µM
IC50 (LoVo): 9 µM
IC50 (PC-3): 12 µM
IC50 (A549): 19 µM
SMILES: CC(C)[C@@H]1CC=C[C@H]2[C@@H]3[C@](C)(O)[C@@H](O)C[C@H](Br)[C@@]3(C)CC[C@]12CBr
inhibition (U-373MG ATCC [3]): Active
IC50 [1]: 19 µM
IC50 [2]: 16 µM

IC50 (SK-MEL-28): 26 µM
IC50 (LoVo): 23 µM
IC50 (PC-3): 25 µM
IC50 (A549): 28.6 µM
SMILES: CC(C)[C@@H]1CC[C@H](O)[C@H]2[C@H]3[C@](C)(CC[C@@]21CBr)[C@@H](Br)CC[C@@]3(C)O
IC50 [1]: 20 µM
IC50 [2]: 25 µM

IC50 (SK-MEL-28): 5.2 µM
IC50 (LoVo): 2.8 µM
IC50 (PC-3): 3.7 µM
IC50 (A549): 3.7 µM
SMILES: CC(C)[C@@H]1CC=C[C@H]2[C@H]3[C@@](C)(C=CC(=O)[C@@]3(C)O)CC[C@]12CBr [SPHAEROCOCCENOL A]
IC50 [1]: 3 µM
IC50 [2]: 3.2 µM
inhibition (U-373MG ATCC [4]): Active

IC50 (SK-MEL-28): 21 µM
IC50 (LoVo): 5.3 µM
IC50 (PC-3): 8.1 µM
IC50 (A549): 18 µM
SMILES: CC(C)[C@@H]1CC=C[C@H]2[C@H]3[C@](C)(CC[C@]12CBr)[C@@H](O)CC(=O)[C@@]3(C)O
inhibition (U-373MG ATCC [5]): Active
IC50 [1]: 8.4 µM
IC50 [2]: 7.2 µM

IC50 (SK-MEL-28): 29 µM
IC50 (LoVo): 26 µM
IC50 (PC-3): 26 µM
IC50 (A549): 28 µM
SMILES: CC(C)[C@@H]1CC=C[C@H]2[C@@H]3[C@](C)(O)[C@H](O)C[C@H](Br)[C@@]3(C)CC[C@]12CBr
IC50 [1]: 25 µM
IC50 [2]: 25 µM
